Measurements reported in patent US8748436B2, “Carboxylic acid derivatives having a 2,5,7-substituted oxazolopyrimidine ring” (Sanofi, priority 2010, dated 2014).

The molecules below were run against T1, human Edg-1 receptor (Homo sapiens, UniProt P21453) (assay: GTP-γ-S assay using human Edg-1 receptors (scintillation proximity assay, CHO Flp-In cell membrane preparation)). Details: test compound at 10 μM; high control 10 μM S1P regarded as 100% activation; [35S]GTP-γ-S binding, triplicate; read-out: % Activation (Edg-1 receptor activation in percent of the activation by 10 μM S1P).
T1 construct: FLAG (N); expressed in transfected cells; membrane preparation
T1 sequence (P21453 whole entry): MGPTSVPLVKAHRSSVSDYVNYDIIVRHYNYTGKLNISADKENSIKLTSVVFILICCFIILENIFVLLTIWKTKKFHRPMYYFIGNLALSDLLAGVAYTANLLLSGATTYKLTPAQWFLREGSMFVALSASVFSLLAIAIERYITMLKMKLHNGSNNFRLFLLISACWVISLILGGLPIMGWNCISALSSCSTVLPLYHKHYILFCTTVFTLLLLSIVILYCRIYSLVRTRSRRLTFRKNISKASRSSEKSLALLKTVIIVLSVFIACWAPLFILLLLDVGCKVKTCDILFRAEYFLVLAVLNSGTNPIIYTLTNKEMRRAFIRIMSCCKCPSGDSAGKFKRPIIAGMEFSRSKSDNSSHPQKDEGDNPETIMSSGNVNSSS
Assay type: biochemical
Method in brief: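 Scintillation proximity GTP-γ-S binding measured receptor activation. Membranes came from a stably transfected CHO Flp-In line constitutively overexpressing N-terminally FLAG-tagged human Edg-1. Membranes were prepared by hypotonic lysis (5 mM HEPES, 1 mM EDTA, protease inhibitors) at 4 °C and Dounce homogenisation.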
With CCCOc1nc(Oc2cccc(CC)c2)nc2oc(-c3cc(C)c(OCC(=O)O)c(C)c3)nc12 [Example 40, {4-[5-(3-ethylphenoxy)-7-propoxy-oxazolo[5,4-d]pyrimidin-2-yl]-2,6-dimethyl-phenoxy}-acetic acid] the activation at 10 µM was 95%.
CCCOc1nc(Oc2cccc3c2CCC3)nc2oc(-c3cc(C)c(OCC(=O)O)c(C)c3)nc12 [Example 52, {4-[5-(indan-4-yloxy)-7-propoxy-oxazolo[5,4-d]pyrimidin-2-yl]-2,6-dimethylphenoxy}-acetic acid] was tested, and the activation at 10 µM was 54%.
CCCOc1nc(Oc2ccc(F)c(C)c2)nc2oc(-c3cc(C)c(OCC(=O)O)c(C)c3)nc12 [Example 43, {4-[5-(4-fluoro-3-methylphenoxy)-7-propoxy-oxazolo[5,4-d]pyrimidin-2-yl]-2,6-dimethyl-phenoxy}-acetic acid] gave an activation at 10 µM of 60%.
CCOc1nc(Oc2cc(F)ccc2F)nc2oc(-c3cc(C)c(OCC(=O)O)c(C)c3)nc12 [Example 39, {4-[5-(2,5-difluorophenoxy)-7-ethoxy-oxazolo[5,4-d]pyrimidin-2-yl]-2,6-dimethyl-phenoxy}-acetic acid] gave an activation at 10 µM of 121%.
